Experimental data reported in PMC7922706, “New Inhibitory Effects of Cilnidipine on Microglial P2X7 Receptors and IL-1β Release: An Involvement in its Alleviating Effect on Neuropathic Pain” (Cells, 2021).
pIC50: −log10 of the molar value. Where two headings read alike, the source gives them in different places.

Target: T1, rat P2X7R (Rattus norvegicus, UniProt Q64663)
T1 construct: gene P2rx7; rP2X7R (NM_019256) stably expressed in 1321N1 cells
T1 sequence (Q64663 1-595): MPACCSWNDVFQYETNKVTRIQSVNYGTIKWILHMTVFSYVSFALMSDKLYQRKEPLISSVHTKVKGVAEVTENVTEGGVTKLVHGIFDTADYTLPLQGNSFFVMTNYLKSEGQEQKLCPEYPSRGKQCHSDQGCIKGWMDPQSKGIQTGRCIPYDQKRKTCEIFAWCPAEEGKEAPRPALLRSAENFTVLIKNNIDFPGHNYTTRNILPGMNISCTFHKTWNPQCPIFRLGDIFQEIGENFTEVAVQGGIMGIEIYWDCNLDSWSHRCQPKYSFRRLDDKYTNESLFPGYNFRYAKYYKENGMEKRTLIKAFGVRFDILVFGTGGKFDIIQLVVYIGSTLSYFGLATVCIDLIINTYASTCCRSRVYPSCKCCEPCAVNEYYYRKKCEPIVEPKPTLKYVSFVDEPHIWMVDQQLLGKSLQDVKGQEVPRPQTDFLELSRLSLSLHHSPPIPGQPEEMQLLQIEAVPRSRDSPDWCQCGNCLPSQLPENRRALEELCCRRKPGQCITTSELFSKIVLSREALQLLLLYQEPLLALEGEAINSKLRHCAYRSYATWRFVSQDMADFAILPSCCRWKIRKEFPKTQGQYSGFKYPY
Test: single-cell Fura-2 Ca2+ imaging, BzATP-stimulated rP2X7R-1321N1 cells
Format: cell-based

Row | pIC50 (read-out: IC50) | pIC50 | Compound
1 | 6.66 | – | COc1cc(C(=O)NS(=O)(=O)c2ccccc2C)ccc1Cc1cn(C)c2ccc(NC(=O)OC3CCCC3)cc12 [ZFK, zafirlukast]
2 | – | 6.60 | CCc1oc2ccccc2c1C(=O)c1cc(Br)c(O)c(Br)c1 [BBR, benzbromarone]
3 | 6.89 | – | COCCOC(=O)C1=C(C)NC(C)=C(C(=O)OC/C=C/c2ccccc2)C1c1cccc([N+](=O)[O-])c1 (racemic) [CNP, 2-Methoxyethyl(E)-3-phenyl-2-propen-1-yl(±)-1,4-dihydro-2,6-dimethyl-4-(3-nitrophenyl)pyridine-3,5-dicarboxylate]
